The values that follow come from patent US10604512B2, “3-(1H-indol-2-yl)-1H-indazoles and therapeutic uses thereof” (Samumed, LLC, priority 2015, dated 2020).

Common to all, as to format: cell-based
In test [1] the test system is Primary human fibroblasts derived from IPF patients (LL29 cells) treated with TGF-β1. In words: Inhibition of the fibrotic process: αSMA staining in TGF-β1-treated primary human fibroblasts from IPF patients (LL29 cells). Particulars: Fibroblast, 96 h; for EC50: % αSMA-positive LL29 cells, TGF-β1 20 ng/mL, 4 days; for inhibition at 10 µM: given where EC50 >10 μM, αSMA, LL29 cells, TGF-β1, 4 days, read-out: percent inhibition at 10 μM. Put shortly: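 LL29 IPF-patient fibroblasts in 1% FBS stimulated with TGF-β1 (20 ng/mL) and compound (10 μM–1.87 nM, 0.1% DMSO) for 4 days at 37 °C. SYTOX-positive cells excluded; % αSMA-positive cells imaged, normalized to TGF-β1/DMSO wells; EC50 by nonlinear regression, else % inhibition at 10 μM.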

For test [2], the system named is Wnt activity (Sp5-Luc reporter, TCF/LEF binding sites) in SW480 colon carcinoma cells. In words: Screening assay for Wnt activity: Sp5-Luc reporter gene assay in stably transduced SW480 colon carcinoma cells. The settings on record: Homo sapiens; for EC50: overnight incubation, 10-point curve from 10 μM; for inhibition at 10 µM: given where EC50 >10 μM, read-out: percent inhibition at 10 μM. Put shortly: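 SW480 cells stably transduced with a luciferase reporter driven by an Sp5 promoter of eight TCF/LEF sites were plated at 4,000 cells/well in 1% FBS medium. They were exposed overnight at 37° C to a 10-point 1:3 dilution series from 10 μM (0.1% DMSO). Luminescence was normalized to DMSO for four-parameter EC50, or percent inhibition at 10 μM.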
A general note: A reporter such as luciferase makes a cellular process visible.

For a further test, the system named is SW480 colon cancer cells. Put plainly: Cell viability assay (CellTiter-Blue) in SW480 colon cancer cells. Particulars: Homo sapiens, 96 h, four days; for EC50: CellTiter-Blue; for inhibition at 10 µM: given where EC50 >10 μM, read-out: percent inhibition at 10 μM. Put shortly: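 Four-day viability readout in SW480 cells: compound at 0.0045–10 μM (1:3 series), DMSO controls in eight replicates, CellTiter-Blue fluorescence after ~3 h. Values are regression-derived EC50s, or percent inhibition at 10 μM when EC50 exceeds 10 μM.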
On the technique in general: Resazurin is reduced to fluorescent resorufin, in cell work by metabolically active cells.

Molecules are shown by their SMILES.

For orientation: EC50 means the concentration at which the effect is half-maximal. High values mean weaker potency, low ones greater potency. The term inhibition denotes the change of the read-out against control, counted positive when it falls.

With `O=C(Nc1cncc(-c2ccc3[nH]nc(-c4cc5c(-c6ccc(F)cc6)cccc5[nH]4)c3c2)c1)c1ccccc1` [Compound 39, N-(5-(3-(4-(4-Fluorophenyl)-1H-indol-2-yl)-1H-indazol-5-yl)pyridin-3-yl) benzamide], the concentration giving a half-maximal response (EC50) in test [1] came out at 1.26 µM; in test [2], 0.53 µM; with SW480 colon cancer cells, 3.81 µM.
In the same order, the values of `c1ccc2[nH]c(-c3n[nH]c4ccc(-c5cncc(CN6CCCC6)c5)cc34)cc2c1` [Compound 266, 3-(1H-Indol-2-yl)-5-(5-(pyrrolidin-1-ylmethyl)pyridin-3-yl)-1H-indazole] are 0.563 µM, 0.36 µM and 1.04 µM.
Turning to `c1cncc(-c2ccc3[nH]nc(-c4cc5ccccc5[nH]4)c3c2)c1` [Compound 256, 3-(1H-Indol-2-yl)-5-(pyridin-3-yl)-1H-indazole], the EC50 in test [1] is 9.77 µM; in test [2] it was 0.018 µM; in the test on SW480 colon cancer cells, above 10 µM. The inhibition at 10 µM in the test on SW480 colon cancer cells came out at 4.7%.
As for `c1cncc(-c2ccc3[nH]nc(-c4cc5c(-c6cccs6)cccc5[nH]4)c3c2)c1` [Compound 340, 5-(Pyridin-3-yl)-3-(4-(thiophen-2-yl)-1H-indol-2-yl)-1H-indazole], the values for the EC50 (in test [1]; in test [2]; in the test with SW480 colon cancer cells) were above 10 µM, 0.074 µM and 0.371 µM, respectively. In addition, the inhibition at 10 µM in test [1] amounted to 38.3%.
Regarding `Fc1ccc(-c2cccc3[nH]c(-c4n[nH]c5ccc(-c6cncc(CN7CCCC7)c6)cc45)cc23)cc1` [Compound 42, 3-(4-(4-Fluorophenyl)-1H-indol-2-yl)-5-(5-(pyrrolidin-1-ylmethyl)pyridin-3-yl)-1H-indazole], the 50% effective concentration (EC50) in test [1] was 2.09 µM; in test [2], 0.845 µM; with SW480 colon cancer cells it was above 10 µM. The inhibition at 10 µM with SW480 colon cancer cells worked out at 42.4%.
In the same order, the values of `CCC(=O)Nc1cncc(-c2ccc3[nH]nc(-c4cc5ccccc5[nH]4)c3c2)c1` [Compound 253, N-(5-(3-(1H-Indol-2-yl)-1H-indazol-5-yl)pyridin-3-yl)propionamide] are 2.31 µM, 0.16 µM, above 10 µM and 13.6%.
For the molecule `Fc1ccc(-c2cccc3[nH]c(-c4n[nH]c5ccc(C6=CCNCC6)cc45)cc23)cc1` [Compound 550, 3-(4-(4-Fluorophenyl)-1H-indol-2-yl)-5-(1,2,3,6-tetrahydropyridin-4-yl)-1H-indazole], the results for the concentration for a half-maximal effect (EC50) (in test [1]; in test [2]; in the test on SW480 colon cancer cells) were above 10 µM, above 10 µM and 3.9 µM, respectively. The inhibition at 10 µM in test [1] was 41.7%; in test [2], 48%.
Take `c1ccc(-c2ccc3[nH]nc(-c4cc5c(-c6ccncc6)cccc5[nH]4)c3c2)nc1` [Compound 140, 5-(Pyridin-2-yl)-3-(4-(pyridin-4-yl)-1H-indol-2-yl)-1H-indazole]: the EC50 in test [1] is 1.26 µM; in test [2], 3.56 µM; in the test on SW480 colon cancer cells, above 10 µM. Besides, the inhibition at 10 µM in the test on SW480 colon cancer cells came out at 37.8%.
As to `CC(C)CC(=O)Nc1cncc(-c2ccc3[nH]nc(-c4cc5ncccc5[nH]4)c3c2)c1` [Compound 506, N-(5-(3-(1H-Pyrrolo[3,2-b]pyridin-2-yl)-1H-indazol-5-yl)pyridin-3-yl)-3-methylbutanamide], the results for the half-maximal effective concentration (EC50) (in test [1]; in test [2]; with SW480 colon cancer cells) were above 10 µM, 0.086 µM and 0.486 µM, respectively. The inhibition at 10 µM in test [1] was 24.2%.
In the case of `CCC(=O)Nc1cncc(-c2ccc3[nH]nc(-c4cc5c(N6CCCCC6)cccc5[nH]4)c3c2)c1` [Compound 169, N-(5-(3-(4-(Piperidin-1-yl)-1H-indol-2-yl)-1H-indazol-5-yl)pyridin-3-yl) propionamide], the half-maximal effective concentration (EC50) in test [1] is 1.02 µM; in test [2], 1.4 µM; in the test on SW480 colon cancer cells, above 10 µM. Moreover, the inhibition at 10 µM in the test with SW480 colon cancer cells amounted to 10.4%.
Consider `CN1CCN(c2cccc3[nH]c(-c4n[nH]c5ccc(-c6cncc(NC(=O)C7CCCC7)c6)cc45)cc23)CC1` [Compound 246, N-(5-(3-(4-(4-Methylpiperazin-1-yl)-1H-indol-2-yl)-1H-indazol-5-yl)pyridin-3-yl)cyclopentanecarboxamide], for which the concentration for a half-maximal effect (EC50) came to 2.56 µM in test [1], 1.25 µM in test [2] and 2.99 µM with SW480 colon cancer cells.
Taken in the same sequence, the figures for `CC(C)C(=O)Nc1cncc(-c2ccc3[nH]nc(-c4cc5c(-c6cccnc6)cccc5[nH]4)c3c2)c1` [Compound 93, N-(5-(3-(4-(Pyridin-3-yl)-1H-indol-2-yl)-1H-indazol-5-yl)pyridin-3-yl) isobutyramide] were 1.22 µM, 0.085 µM and 2.3 µM.
Regarding `Nc1cncc(-c2ccc3[nH]nc(-c4cc5c(-c6ccccc6F)cccc5[nH]4)c3c2)c1` [Compound 59, 5-(3-(4-(2-Fluorophenyl)-1H-indol-2-yl)-1H-indazol-5-yl)pyridin-3-amine], the results for the concentration for a half-maximal effect (EC50) (in test [1]; in test [2]; in the test on SW480 colon cancer cells) were 0.603 µM, 0.053 µM and 1.29 µM, respectively.
For the molecule `CCCCC(=O)Nc1cncc(-c2ccc3[nH]nc(-c4cc5c(-c6ccccn6)cccc5[nH]4)c3c2)c1` [Compound 159, N-(5-(3-(4-(Pyridin-2-yl)-1H-indol-2-yl)-1H-indazol-5-yl)pyridin-3-yl) pentanamide], the concentration giving a half-maximal response (EC50) in test [1] is above 10 µM; in test [2], 1.67 µM; in the test with SW480 colon cancer cells, above 10 µM. Besides, the results for the inhibition at 10 µM (in test [1]; in the test with SW480 colon cancer cells) were 45.6% and 22.3%, respectively.
For the molecule `O=C(Nc1cncc(-c2ccc3[nH]nc(-c4cc5ccccc5[nH]4)c3c2)c1)C1CCCCC1` [Compound 275, N-(5-(3-(1H-Indol-2-yl)-1H-indazol-5-yl)pyridin-3-yl) cyclohexanecarboxamide], the figures for the concentration giving a half-maximal response (EC50) (in test [1]; in test [2]; in the test with SW480 colon cancer cells) were above 10 µM, 0.588 µM and above 10 µM, respectively. Also, the inhibition at 10 µM in test [1] is 43.7%; in the test with SW480 colon cancer cells it was 9.5%.
For the molecule `CN1CCN(c2cccc3[nH]c(-c4n[nH]c5ccc(-c6cncc(NC(=O)CC7CCNCC7)c6)cc45)cc23)CC1` [Compound 669, N-(5-(3-(4-(4-Methylpiperazin-1-yl)-1H-indol-2-yl)-1H-indazol-5-yl)pyridin-3-yl)-2-(piperidin-4-yl)acetamide], the EC50 (in test [1]; in test [2]; in the test on SW480 colon cancer cells) was above 10 µM each time. Besides, the inhibition at 10 µM in test [1] is 17.7%; in test [2], 11.7%; in the test with SW480 colon cancer cells, 12.2%.
As for `Fc1cccc(-c2cccc3[nH]c(-c4n[nH]c5ccc(C6CCNCC6)cc45)cc23)c1` [Compound 533, 3-(4-(3-Fluorophenyl)-1H-indol-2-yl)-5-(piperidin-4-yl)-1H-indazole], the figures for the EC50 (in test [1]; in test [2]; in the test on SW480 colon cancer cells) were above 10 µM, 3.83 µM and 3.84 µM, respectively. Besides, the inhibition at 10 µM in test [1] came out at 0%.
`CN(C)Cc1cncc(-c2ccc3[nH]nc(-c4cc5c(-c6ccncc6)cccc5[nH]4)c3c2)c1` [Compound 125, N,N-dimethyl-1-(5-(3-(4-(Pyridin-4-yl)-1H-indol-2-yl)-1H-indazol-5-yl)pyridin-3-yl)methanamine]: the EC50 is 1.25 µM in test [1], 0.275 µM in test [2] and 0.412 µM with SW480 colon cancer cells.
`Fc1ccc(-c2cccc3[nH]c(-c4n[nH]c5ccc(-c6cncnc6)cc45)cc23)cc1` [Compound 55, 3-(4-(4-Fluorophenyl)-1H-indol-2-yl)-5-(pyrimidin-5-yl)-1H-indazole]: the EC50 is 6.11 µM in test [1], 1.78 µM in test [2] and above 10 µM in the test on SW480 colon cancer cells. For the same molecule, the inhibition at 10 µM with SW480 colon cancer cells is 26.3%.
